Columns and labels:
Format in all cases: biochemical
[1] = molecular target: T1, unphosphorylated VEGF-R2Δ50 (FLVK) (Homo sapiens, UniProt P35968, DEL940-989/E990V); assay: VEGF-R2 coupled spectrophotometric assay, unphosphorylated enzyme (FLVK); settings: Table 3; for Ki: some entries 'Slow binder'; for inhibition at 0.05 µM: at 50 nM
T1 construct: VEGF-R2Δ50 contains residues 806-939 and 990-1171; made in house; host or cells: baculovirus/insect cells
Excerpt: VEGF-R2 Construct for Assay: This construct determines the ability of a test compound to inhibit tyrosine kinase activity. A construct (VEGF-R2Δ50) of the cytosolic domain of human vascular endothelial growth factor receptor 2 (VEGF-R2) lacking the 50 central residues of the 68 residues of the kinase insert domain was expressed in a baculovirus/insect cell system. Of the 1356 residues of full-length VEGF-R2, VEGF-R2Δ50 contains residues 806-939 and 990-1171, and also one point mutation (E990V) within the kinase insert domain relative to wild-type VEGF-R2. Autophosphorylation of the purified construct was performed by incubation of the enzyme at a concentration of 4 μM in the presence of 3 mM ATP and 40 mM MgCl2 in 100 mM Hepes, pH 7.5, containing 5% glycerol and 5 mM DTT, at 4° C. for 2 h. […] See Parast et al., Biochemistry, 37, 16788-16801 (1998).
The production of ADP from ATP that accompanies phosphoryl transfer was coupled to oxidation of NADH using phosphoenolpyruvate (PEP) and a system having pyruvate kinase (PK) and lactic dehydrogenase (LDH). The oxidation of NADH was monitored by following the decrease of absorbance at 340 nm (e340=6.22 cm^−1 mM^−1) using a Beckman DU 650 spectrophotometer. Assay conditions for phosphorylated VEGF-R2Δ50 (indicated as FLVK-P in the tables below) were the following: 1 mM PEP; 250 μM NADH; 50 units of LDH/mL; 20 units of PK/mL; 5 mM DTT; 5.1 mM poly(E4Y1); 1 mM ATP; and 25 mM MgCl2 in 200 mM Hepes, pH 7.5. Assay conditions for unphosphorylated VEGF-R2Δ50 (indicated as FLVK in the tables) were the following: 1 mM PEP; 250 μM NADH; 50 units of LDH/mL; 20 units of PK/mL; 5 mM DTT; 20 mM poly(E4Y1); 3 mM ATP; and 60 mM MgCl2 and 2 mM MnCl2 in 200 mM Hepes, pH 7.5. Assays were initiated with 5 to 40 nM of enzyme. Ki values were determined by measuring enzyme activity in the presence of varying concentrations of test compounds. The data were analyzed using Enzyme Kinetic and Kaleidagraph software.

[2] = molecular target: T2, phosphorylated VEGF-R2Δ50 (FLVK-P) (Homo sapiens, UniProt P35968, DEL940-989/E990V); assay: VEGF-R2 coupled spectrophotometric (FLVK-P) assay; settings: combinatorial library compounds; for inhibition at 20 µM: read-out: VEGF % inhibition at 20 μM, 20 μM
T2 construct: VEGF-R2Δ50 contains residues 806-939 and 990-1171; made in house; host or cells: baculovirus/insect cells
Method in brief: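 Baculovirus-expressed human VEGF-R2Δ50 (residues 806-939/990-1171, E990V) was autophosphorylated with 3 mM ATP, 40 mM MgCl2 for 2 h at 4° C. ADP formation was coupled via PK/LDH to NADH oxidation, read at 340 nm, with 5.1 mM poly(E4Y1), 1 mM ATP, 25 mM MgCl2, Hepes pH 7.5. Ki came from activity across compound concentrations.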

FL-CHK1 = molecular target: T3, FL-CHK1 (Homo sapiens, UniProt O14757); assay: CHK1 assay; settings: 20 μM; combinatorial library compounds
T3 construct: C-terminally His-tagged full-length human CHK1 (FL-CHK1); 6xHis (C); made in house; host or cells: baculovirus/insect cells
T3 sequence (O14757 1-476): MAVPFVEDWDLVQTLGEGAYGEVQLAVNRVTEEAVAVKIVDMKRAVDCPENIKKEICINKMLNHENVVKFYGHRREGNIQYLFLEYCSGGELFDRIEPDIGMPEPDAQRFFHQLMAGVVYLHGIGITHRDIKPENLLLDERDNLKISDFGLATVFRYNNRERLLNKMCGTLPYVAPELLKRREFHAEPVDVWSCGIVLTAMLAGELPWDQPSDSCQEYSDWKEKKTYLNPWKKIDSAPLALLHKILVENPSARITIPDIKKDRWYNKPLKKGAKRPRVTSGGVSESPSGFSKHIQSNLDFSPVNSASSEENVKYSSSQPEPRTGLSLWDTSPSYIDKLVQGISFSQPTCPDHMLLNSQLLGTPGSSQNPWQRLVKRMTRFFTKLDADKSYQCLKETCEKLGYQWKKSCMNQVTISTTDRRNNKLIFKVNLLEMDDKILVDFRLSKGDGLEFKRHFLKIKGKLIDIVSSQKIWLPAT
Method in brief: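 Full-length human CHK1 with C-terminal 6×His tag, made in baculovirus/insect cells, 10 nM, phosphorylating 0.125 mM Syntide-2 with 0.15 mM ATP in 50 mM Tris pH 7.5, 25 mM MgCl2, 400 mM NaCl. PK/LDH-coupled NADH oxidation read at 340 nm. Ki from initial rates over varied compound concentrations.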

CDK2/Cyclin A complex = CDK2/Cyclin A complex (Homo sapiens, UniProt P24941); assay: CDK2/Cyclin A assay; settings: 1.0 μM; combinatorial library compounds
Method in brief: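 Radiometric assay: 150 nM CDK2/cyclin A (insect-cell CDK2, truncated cyclin A) phosphorylates His-tagged Rb fragment (residues 386-928) with 25 μM ATP plus [32P]ATP, pH 7.4 HEPES, 2% DMSO, 30 °C for 20 min. Filter-captured product counted by phosphorimager; apparent Ki from competitive or tight-binding inhibition fits.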

CDK4/Cyclin D3 complex = molecular target: T4, CDK4/Cyclin D3 complex (Homo sapiens, UniProt P11802); assay: CDK4/Cyclin D assay; settings: 1.0 μM; combinatorial library compounds
T4 construct: made in house; host or cells: insect cells co-infected with baculovirus vectors
Method in brief: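 Insect-cell-expressed CDK4/cyclin D3 (50 nM) phosphorylating His-tagged Rb fragment (residues 386-928) with 25 μM [^32P]ATP in HEPES pH 7.4, MgCl2, 2% DMSO; 20 min at 30 °C, EDTA stop. Filter-captured 32P by phosphorimager; apparent Ki from competitive or tight-binding inhibition fits.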

T2 sequence (P35968 with tags, fused parts or gaps DEL940-989/E990V limits assumed): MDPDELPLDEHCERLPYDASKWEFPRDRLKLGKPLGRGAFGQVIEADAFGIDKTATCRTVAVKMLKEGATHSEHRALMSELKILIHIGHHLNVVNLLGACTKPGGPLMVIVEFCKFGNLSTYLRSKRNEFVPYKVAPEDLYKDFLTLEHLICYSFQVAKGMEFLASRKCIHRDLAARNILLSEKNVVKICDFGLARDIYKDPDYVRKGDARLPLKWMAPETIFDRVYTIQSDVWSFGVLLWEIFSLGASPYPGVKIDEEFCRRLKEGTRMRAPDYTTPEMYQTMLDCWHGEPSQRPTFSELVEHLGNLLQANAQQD
T1 sequence (P35968 with tags, fused parts or gaps DEL940-989/E990V limits assumed): as above
T4 sequence (P11802 whole entry): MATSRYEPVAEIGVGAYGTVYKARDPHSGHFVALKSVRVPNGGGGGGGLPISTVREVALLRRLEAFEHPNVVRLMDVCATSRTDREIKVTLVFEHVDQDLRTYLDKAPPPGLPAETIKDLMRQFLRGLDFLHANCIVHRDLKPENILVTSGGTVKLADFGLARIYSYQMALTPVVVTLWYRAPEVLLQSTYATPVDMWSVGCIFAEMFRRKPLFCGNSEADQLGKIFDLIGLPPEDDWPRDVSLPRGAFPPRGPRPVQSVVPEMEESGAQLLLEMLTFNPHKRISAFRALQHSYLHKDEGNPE
T4 sequence (P30281 whole entry partner): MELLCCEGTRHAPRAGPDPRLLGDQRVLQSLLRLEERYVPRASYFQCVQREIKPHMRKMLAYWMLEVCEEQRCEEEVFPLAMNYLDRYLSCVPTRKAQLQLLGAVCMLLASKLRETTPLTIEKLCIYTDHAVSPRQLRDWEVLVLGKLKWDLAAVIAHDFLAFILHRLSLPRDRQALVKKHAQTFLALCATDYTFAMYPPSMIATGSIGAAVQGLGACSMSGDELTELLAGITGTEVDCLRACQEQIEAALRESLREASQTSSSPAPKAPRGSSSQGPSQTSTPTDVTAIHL

| SMILES | inhibition at 20 µM [2] | CHK1 % Inhibition at 20 μM (FL-CHK1) | VEGF % inhibition at 20 μM [2] | CDK2 % Inhibition at 1.0 μM (CDK2/Cyclin A complex) | CDK4 % Inhibition at 1.0 μM (CDK4/Cyclin D3 complex) | further results |
| --- | --- | --- | --- | --- | --- | --- |
| Cc1ccc(NC(=O)C(O)CC(C)C)cc1-c1noc(-c2sc(Nc3cccc(CN4CCCC4)c3)nc2N)n1 (racemic) [B(11), (R,S)-3-[3-(2-hydroxy-4-methylpentanoyl)amino]-6-methylphenyl]-5-[2-(3-methylpyrrolidinephenyl)amino]-4-amino-5-thiazolyl]-1,2,4 oxadiazole] |  |  |  |  |  | Ki [1]: 0.7 nM |
| COc1cc(Nc2nc(N)c(-c3nc(-c4cc(NC(=O)OC(C)(C)C)ccc4F)no3)s2)cc(OC)c1OC [B(5), 3-(3-(tert-butyloxycarboxyamino)-6-fluoro-phenyl)-5-[2-[(3,4,5-trimethoxyphenyl)amino]-4-amino-5-thiazolyl]-1,2,4-oxadiazole] |  |  |  |  |  | Ki [1]: 2.3 nM |
| COc1cccc(C(=O)Nc2ccc(C)c(-c3noc(-c4sc(Nc5ccc(N(C)C)cc5)nc4N)n3)c2)c1 [B(7), 3-[3-[(3-methoxybenzoyl)amino]-6-methyl-phenyl]-5-[2-[4-(N,N-dimethylaminophenyl)amino]-4-amino-5-thiazolyl]-1,2,4-oxadiazole] |  |  |  |  |  | inhibition at 0.05 µM [1]: 61% |
| CCn1nc(C)cc1C(=O)Nc1ccc(C)c(-c2noc(-c3sc(Nc4cccc(CO)c4)nc3N)n2)c1 [B(8)] |  |  |  |  |  | Ki [1]: 0.1 nM |
| CCn1nc(C)cc1C(=O)Nc1ccc(C)c(-c2noc(-c3sc(Nc4ccc(CN5CCCC5)cc4)nc3N)n2)c1 [B(10)] |  |  |  |  |  | Ki [1]: 0.13 nM |
| COc1cccc(C(=O)Nc2cc(-c3noc(-c4sc(NC(C)C)nc4N)n3)c(F)cc2F)c1 [B(19), N-{5-[5-(4-Amino-2-isopropylamino-thiazol-5-yl)-[1,2,4]oxadiazol-3-yl]-2,4-difluoro-phenyl}-3-methoxy-benzamide] |  |  |  |  |  | inhibition at 0.05 µM [1]: 36% |
| Cc1c(-c2csc(-c3sc(Nc4ccc(S(N)(=O)=O)cc4)nc3N)n2)sc2ccc(Cl)cc12 [drawing 424] | 23% | 28.4% |  |  |  | inhibition at 1 µM (CDK2/Cyclin A complex): 67%; inhibition at 1 µM (CDK4/Cyclin D3 complex): 59.9% |
| COc1ccc(-c2csc(-c3sc(Nc4ccc(S(N)(=O)=O)cc4)nc3N)n2)cc1 [drawing 425] |  | 10.7% | 11% | 54.2% | 40.9% |  |
| Cc1c(-c2csc(-c3sc(Nc4ccc(S(N)(=O)=O)cc4)nc3N)n2)sc2ccc(Cl)cc12 [drawing 426] |  | 9.7% | 19% | 56% | 70.6% |  |
| Nc1nc(Nc2ccc(S(N)(=O)=O)cc2)sc1-c1nc(-c2ccccc2)cs1 [drawing 435] |  | 12.3% | 34% | 60.8% | 43.3% |  |
| Cc1c(F)cc(-c2csc(-c3sc(Nc4ccc(S(N)(=O)=O)cc4)nc3N)n2)cc1Cl [drawing 440] | 5% |  |  |  |  | inhibition at 20 µM (FL-CHK1): 21.1%; inhibition at 1 µM (CDK2/Cyclin A complex): 68%; inhibition at 1 µM (CDK4/Cyclin D3 complex): 75% |
| Nc1nc(Nc2ccc(S(N)(=O)=O)cc2)sc1-c1nc(-c2ccc(F)cc2F)cs1 [drawing 445] | 40% |  |  |  |  | inhibition at 20 µM (FL-CHK1): 21.6%; inhibition at 1 µM (CDK2/Cyclin A complex): 74.1%; inhibition at 1 µM (CDK4/Cyclin D3 complex): 58.2% |
| COc1ccc(-c2csc(-c3sc(Nc4ccc(C(C)C)cc4)nc3N)n2)cc1 [drawing 462] | 19% | 4.7% |  |  |  | inhibition at 1 µM (CDK2/Cyclin A complex): 27.8%; inhibition at 1 µM (CDK4/Cyclin D3 complex): 60.9% |
| CC(C)c1ccc(Nc2nc(N)c(-c3nc(-c4ccccc4)cs3)s2)cc1 [drawing 484] |  | 4% | −4% |  | −42.5% | inhibition at 1 µM (CDK2/Cyclin A complex): 23.3% |
| Cc1c(-c2csc(-c3sc(Nc4ccc(C(C)C)cc4)nc3N)n2)sc2ccc(Cl)cc12 [drawing 487] | 47% |  |  |  |  | inhibition at 20 µM (FL-CHK1): 32.3%; inhibition at 1 µM (CDK2/Cyclin A complex): 38.6%; inhibition at 1 µM (CDK4/Cyclin D3 complex): 79.6% |
| COc1ccc(-c2csc(-c3sc(Nc4ccc(C(C)C)cc4)nc3N)n2)cc1 [drawing 488] |  | 14.2% | 12% | 38.3% | 79% |  |
| Cc1c(-c2csc(-c3sc(Nc4ccc(C(C)C)cc4)nc3N)n2)sc2ccc(Cl)cc12 [drawing 489] |  | 17.8% | 42% | 31% | 79.9% |  |
| CC(C)c1ccc(Nc2nc(N)c(-c3nc(-c4ccccc4)cs3)s2)cc1 [drawing 498] |  | 0.2% | 22% | 18.5% | 59.4% |  |
| COc1ccc(-c2csc(-c3sc(Nc4ccc(N(C)C)cc4)nc3N)n2)cc1 [drawing 525] | 13% | 2.7% |  | 6.1% | 19.1% |  |
| CN(C)c1ccc(Nc2nc(N)c(-c3nc(-c4ccccc4)cs3)s2)cc1 [drawing 547] | 17% |  |  |  | −48.3% | inhibition at 20 µM (FL-CHK1): 13.1%; inhibition at 1 µM (CDK2/Cyclin A complex): 17.2% |
| Cc1c(-c2csc(-c3sc(Nc4ccc(N(C)C)cc4)nc3N)n2)sc2ccc(Cl)cc12 [drawing 550] | 31% |  |  | 17.1% |  | inhibition at 20 µM (FL-CHK1): 41.9%; inhibition at 1 µM (CDK4/Cyclin D3 complex): 64.3% |
| COc1ccc(-c2csc(-c3sc(Nc4ccc(N(C)C)cc4)nc3N)n2)cc1 [drawing 551] |  | 34.8% | 23% | 29.8% | 83% |  |
| Cc1c(-c2csc(-c3sc(Nc4ccc(N(C)C)cc4)nc3N)n2)sc2ccc(Cl)cc12 [drawing 552] |  | 26.8% | 29% | 37.3% | 65.1% |  |
| CN(C)c1ccc(Nc2nc(N)c(-c3nc(-c4ccccc4)cs3)s2)cc1 [drawing 561] |  | 17.5% | 30% | 19.7% | 65.1% |  |
